Assay results published in patent publication US6638919B2, “Antiviral purine derivatives” (University College Cardiff Consultants Limited, priority 2001, dated 2003).
Entries after “also recorded” stand apart in the source; their conditions may differ. Where two headings read alike, the source gives them in different places.

Experiments:
[1] = tested on: HIV-2; conditions: Table II, known data disclosed in PCT/GB96/00580; read-out: EC50/μM HIV-2 CEM; cited from earlier work
[2] = tested on: HIV-1; conditions: read-out: EC50/μM HIV-1 CEM; Table II, known data disclosed in PCT/GB96/00580; cited from earlier work
[3] = tested on: CEM cells; conditions: cited from earlier work
[4] = Solution stability of salt forms; type: physicochemical; conditions: % of parent (AUC) after 27 hr at room temperature
Text: (§1) The solubility and solution/solid state stability of three salt forms of (1S, 4R)-4-[2-amino-5(cyclopropylamino)-9(H)-purin-9-yl]-2-cyclopentene-1-methanol O-(phenyl ethoxy-L-alaninyl) phosphate

[5] = Solid state stability of salt forms; type: physicochemical; conditions: % of parent (AUC) after two weeks at 60° C.
Text: as §1

[6] = Solid type of salt forms; type: physicochemical
[7] = tested on: HIV-1; test: Inhibition of HIV-1 giant cell formation in CEM cells; type: cell-based
Protocol: (§2) Then 100 μL of the infected cell suspension was transferred to microtiter plate wells and mixed with 100 μL of the appropriate dilutions of the test compounds.
HIV 1 CEM: EC50 in μM for inhibition of HIV1 in CEM cells

[8] = tested on: HIV-2; test: Inhibition of HIV-2 giant cell formation in CEM cells; type: cell-based
Protocol: as §2
HIV1 CEM: EC50 in μM for inhibition of […] in CEM cells.
HIV2 CEM: EC50 in μM for inhibition of HIV-2 in CEM cells

[9] = Toxicity to mock-infected CEM cells (CC50); type: cell-based; conditions: human
Protocol: as §2
(§3) CC50 CEM: CC50 in μM for toxicity to CEM cells.
(§4) CC50 CEM: CC50 μM for toxicity to CEM cells

[10] = tested on: HIV-1; test: Inhibition of HIV-1 giant cell formation in CEM cells; type: cell-based; conditions: mean increase in potency of phosphoramidate versus its parent nucleoside for HIV 1 and HIV 2
[11] = Acid stability, dilute HCl pH1, simulated stomach conditions; type: physicochemical; conditions: 0.1N HCl pH1, 25° C.
Protocol: Compounds were tested for their stability towards acid-mediated hydrolytic decomposition employing a test designed to simulate stomach conditions. Each compound was incubated in dilute HCl of pH1 for 24 hours at 25° C. 0.3 mg of compound were added to 1 mL of 0.1N HCl at 25° C. HPLC was run immediately for time=0 and at intervals up to approximately 24 hours.

[12] = human, plasma
Protocol: (§5) Each compound was incubated in normal heparinised human plasma at 37° C. for 4 hours. […] Drug concentrations were then determined by LC/MS/MS analysis using standard methods.

[13] = Biological stability in heparinised human plasma
Protocol: as §5

[14] = tested on: HIV-2; test: Inhibition of HIV-2 in CEM.TK- cells; type: cell-based; conditions: Human immunodeficiency virus 2, CEM-TK(-), read-out: HIV2 CEM. TK.
Protocol: Cells were infected with HIV-1 as previously described [Balzarini et al. AIDS (1991), 5, 21-28]. Briefly, 5×10^5 cells per milliliter were infected with HIV-1 or HV-2 at 100 CClD50 (50% cell culture infective dose) per milliliter of cell suspension. Then 100 μL of the infected cell suspension was transferred to microtiter plate wells and mixed with 100 μL of the appropriate dilutions of the test compounds. After 4 days giant cell formation was recorded microscopically in the HIV-infected cell cultures [CEM].
HIV2CEM.TK- EC50 μM for inhibition of IV-2 in CEM=cells

[15] = tested on: MSV; test: Inhibition of MSV; type: cell-based; conditions: Table III; inhibition of MSV; read-out: EC50 MSV
Protocol: EC50 MSV: EC50 μM for inhibition of MSV

[16] = tested on: MSV; test: Minimum cytotoxic concentration in MSV assay; type: cell-based; parameters: unit not given here; conditions: Table III
Text: MCC MSV: minimum cytotoxic concentration in MSV essay.

[17] = tested on: CEM cells; test: Toxicity to mock-infected CEM cells (CC50); type: cell-based
Protocol: as §2, §3, §4

[18] = heparinised human plasma, 37° C.
[19] = Human immunodeficiency virus 1, CCRF-CEM, Table III, EC50 for inhibition of HIV1 in CEM cells, read-out: HIV1 CBM
[20] = Human immunodeficiency virus 2, CCRF-CEM, Table III, EC50 for inhibition of HIV-2 in CEM cells, read-out: HIV2 CBM
[21] = Table III, toxicity to CEM cells, read-out: CC50 CEN
[22] = Table III, EC50 for inhibition of HIV-2 in CEM cells, read-out: HIV2 CBM

Structure (SMILES): CCOC(=O)[C@H](C)NP(=O)(OC[C@@H]1C=C[C@H](n2cc(C)c(=O)[nH]c2=O)O1)Oc1ccccc1 (stereo partly drawn) [Compound 951, 2′, 3′-dideoxy-2′, 3′-didehydrothymidine 5′-(phenylexthoxyalaninyl) phosphoramidate]
- EC50 [1]: 0.07 µM
- EC50 [2]: 0.1 µM
- CC50 [3]: 5.5 µM

Structure (SMILES): CCOC(=O)[C@H](C)NP(=O)(OC[C@@H]1C=C[C@H](n2cnc3c(NC4CC4)nc(N)nc32)C1)Oc1ccccc1.O=C(O)/C=C/C(=O)O (stereo partly drawn) [Example 3, (1S,4R)-4-(2-Amino-6cyclopropylamino-9(H)-purin-9-yl)-2-cyclopentene-1-methanol O-(phenylethoxy-L-alaninyl) phosphate Fumarate Salt]
- Stability (%) 0.1 N HCl [4]: 70.0%
- Stability (%) HPMC/Tween [4]: 98.3%
- Stability (%) PBS [4]: 98.5%
- Solid State Stability (%) [5]: 97.1%
- Solid Type [6]: crystals

Structure (SMILES): COC(=O)C(C)NP(=O)(OCC1C=CC(n2cnc3c(=O)[nH]c(N)nc32)C1)Oc1ccccc1 [Example A, (1R, 4S)-9-14-(hydroxymethyl)-2-cyclopenten-2-yl] guanine-5′-[phenyl-(methoxy-L-alaninyl)]-phosphate, reference compound]
- EC50 ([7]; Human immunodeficiency virus 1, CCRF-CEM, 96 h, CEM cells, giant cell formation after 4 days, Tables I and II, read-out: EC50/μM HIV-1 CEM): 1.3 µM
- EC50 ([8]; Human immunodeficiency virus 2, CCRF-CEM, 96 h, CEM cells, giant cell formation after 4 days, Tables I and II, read-out: EC50/μM HIV-2 CEM): 0.85 µM
- CC50 ([9]; mock-infected CEM cells, Tables I and II, read-out: CC50/μM CEM): 123 µM
- Fold Improvement [10]: 1.9

Structure (SMILES): COC(=O)C(C)NP(=O)(OC[C@@H]1CC[C@H](n2cnc3c(N)ncnc32)O1)Oc1ccccc1 (stereo partly drawn) [Compound 1093, 2′, 3′-dideoxy adenosine 5′-(phenylmethoxyalaninyl) phosphoramidate]
- time to degradation in acid [11]: less than 13 hours
- Compound left (%) ([11]; time 0 hr): 100%
- Compound left (%) ([11]; time 13 hr): 0%
- % Remaining at 4 hours [12]: 50%
- EC50 [1]: 0.035 µM
- EC50 [2]: 0.016 µM
- CC50 ([3]; read-out: CC50/μM CEM, Table II, known data disclosed in PCT/GB96/00580): 2.57 µM
- Half-life [13, 18]: 4.2 h

Structure (SMILES): C[C@H](NP(=O)(OC[C@@H]1C=CC(n2cnc3c(NC4CC4)nc(N)nc32)C1)Oc1ccccc1)C(=O)OCCC(C)(C)C (stereo partly drawn) [Compound 1687, (1S,4R)-4-(2-amino6cyclopropylamino-9H-purin-9-yl)-2-cyclopentene-1-methanol O-[phenyl(3,3-dimethyl-]-butoxy-L-alaninyl)phosphate]
- EC50 [7, 19]: 0.2 µM
- EC50 [8, 20]: 0.2 µM
- EC50 [14]: 0.14 µM
- CC50 [9, 21]: 10.2 µM
- EC50 [15]: 2.22 µM
- MCCMSV [16]: >4

Structure (SMILES): CCOC(=O)[C@H](C)NP(=O)(OC[C@@H]1C=C[C@H](n2cnc3c(NC4CC4)nc(N)nc32)C1)Oc1ccccc1.O=C(O)CCC(=O)O (stereo partly drawn) [Example 1, (1S,4R)-442-Amino-6-cyclopropylamino-9(purin-9-yl)-2-cyclopentene-1-methanol O-(phenylethoxy-L-alaninyl) phosphate Succinate Salt]
- Stability (%) 0.1 N HCl [4]: 66.0%
- Stability (%) HPMC/Tween [4]: 98.8%
- Stability (%) PBS [4]: 99.8%
- Solid State Stability (%) [5]: 99.6%
- Solid Type [6]: crystals

Structure (SMILES): COC(=O)C[C@H](NP(=O)(OC[C@@H]1C=C[C@H](n2cc(C)c(=O)[nH]c2=O)O1)Oc1ccccc1)C(=O)OC (stereo partly drawn) [Compound 1078, 2′, 3′-dideoxy-2′, 3′-didehydrothymidine 5′-(phenyldimethoxyaspartyl) phosphoramidate]
- EC50 [1]: 0.65 µM
- EC50 [2]: 0.55 µM
- CC50 [3]: 209 µM

Structure (SMILES): CCOC(=O)[C@H](C)NP(=O)(OC[C@@H]1C=C[C@H](n2cnc3c(NC4CC4)nc(N)nc32)C1)Oc1ccccc1 (stereo partly drawn) [Compound 1587, (1S,4R)-4-(2-amino-6cyclopropylamino-9H-purin-9-yl)-2-cyclopentene-1-methaanol O-[phenyl-(ethoxy-L-alaninyl)]-phosphate]
- EC50 ([7]; Table III, EC50 for inhibition of HIV1 in CEM cells, read-out: HIV1 CBM): 0.07 µM
- EC50 [8, 22]: 0.06 µM
- CC50 [17, 21]: 12.1 µM
- acid stability in words ([11]; after 22 hours): remained in tact
- Compound left (%) ([11]; time 0 hr): 100%
- Compound left (%) ([11]; time 22 hr): 77%
- Stability (%) 0.1 N HCl [4]: 69.1%
- Stability (%) HPMC/Tween [4]: 97.6%
- Stability (%) PBS [4]: 98.5%
- Solid State Stability (%) [5]: 93.7%
- Solid Type [6]: Amorphous; also recorded: Hygroscopic
- Half-life [13, 18]: 26 h
- % Remaining at 4 hours ([13]; heparinised human plasma, 37° C., 4 hours): 91%
- stability advantage over each of compounds 1001 and 1093 ([13]; human plasma, Table V data): 6 fold

Structure (SMILES): CCC(CC)OC(=O)[C@H](C)NP(=O)(OC[C@@H]1C=CC(n2cnc3c(NC4CC4)nc(N)nc32)C1)Oc1ccccc1 (stereo partly drawn) [Compound 1685]
- EC50 [7, 19]: 1.6 µM
- EC50 [8, 20]: 2 µM
- EC50 [14]: 12.5 µM
- CC50 [9, 21]: 19.7 µM
- EC50 [15]: 10.1 µM
- MCCMSV [16]: >20

Structure (SMILES): COC(=O)[C@H](C)NP(=O)(OC[C@@H]1C=C[C@H](n2cnc3c(NC4CC4)nc(N)nc32)C1)Oc1ccccc1 (stereo partly drawn) [Compound 1490, (1S,4R)-4-(2-amino-6-cyclopropylamino-9H-purin-9-yl)-2-cyclopentene-1-methanol O-[phenyl-(methoxy-L-alaninyl)]-phosphate]
- EC50 ([7]; CEM cells, giant cell formation after 4 days, Tables I and II, read-out: EC50/μM HIV-1 CEM): 0.07 µM
- EC50 ([8]; CEM cells, giant cell formation after 4 days, Tables I and II, read-out: EC50/μM HIV-2 CEM): 0.09 µM
- EC50 [8, 22]: 0.05 µM
- CC50 [17]: 13.1 µM
- EC50 [15]: 1.6 µM
- MCCMSV [16]: >4
- Fold Improvement [10]: 30.2

Structure (SMILES): CCOC(=O)[C@H](C)NP(=O)(OC[C@@H]1C=C[C@H](n2cnc3c(NC4CC4)nc(N)nc32)C1)Oc1ccccc1.O=C(O)CCCC(=O)O (stereo partly drawn) [Example 4, (1S,4R)-4-(2-Amino-6-cyclopropylamino-9(H)-purin-9-yl)-2-cyclopenten-1-methanol O-(phenylethoxy-L-alaninyl) phosphate Glutarate Salt]
- Stability (%) 0.1 N HCl [4]: 69.3%
- Stability (%) HPMC/Tween [4]: 98.6%
- Stability (%) PBS [4]: 99.9%
- Solid State Stability (%) [5]: 98.9%
- Solid Type [6]: crystals
